Measured values taken from patent US20220175766A1, “COMPOSITIONS AND METHODS OF TREATMENT” (GB004, Inc., priority 2019, published 2022).
Like-named read-outs stand apart in the source and are kept apart here.

What was measured:
[1] = Dispersion of Compound 1⋅HCl in stirred water with or without poloxamer 188; type: physicochemical; details: 0.25 g in 50 mL water, in the presence of poloxamer 188 (0.25 g) vs without
Description: Compound 1⋅HCl (0.25 g) was added to each of two stirred beakers containing water (50 mL), one also containing poloxamer 188 (0.25 g). The dispersion of Compound 1 throughout the beaker was higher in the presence of Poloxamer 188.

[2] = type: physicochemical
Description: Binary mixtures of Compound 1 HCl salt (prepared according to Example 2.1) and excipient were stored at 40° C. and 75% RH for 4 weeks and analysed at weekly intervals for appearance, moisture content (KF) and HPLC purity of Compound 1, with the excipients studied being microcrystalline cellulose, silicified microcrystalline cellulose, lactose, crospovidone, croscarmellose sodium, sodium starch glycolate, magnesium stearate, sodium stearyl fumarate, red iron oxide, blue #2, eudragit, polyvinylpyrrolidone, HPMC-AS, anhydrous citric acid and HPMC.

[3] = Compound 1 pH-solubility at 22° C.; type: physicochemical; details: thermodynamic from solid
Source text: The solubility of Compound 1 at various pH's was investigated.

Structure (SMILES): CC(C)(C)OC(=O)N1CCN(Cc2ccn(Cc3ccc(Cl)cc3)c(=O)c2O)CC1.Cl [Compound 1 HCl salt]
- Dispersion of Compound 1 throughout the beaker [1]: higher
- Stability on storage ([2]; 40° C. and 75% RH for 4 weeks): stable
- Appearance of binary mixture ([2]; binary mixture with citric acid, 40° C. and 75% RH, after 1 week): liquefied
- API purity by HPLC ([2]; binary mixture with citric acid, 40° C. and 75% RH, after 4 weeks): 34.1%
- Total impurities ([2]; binary mixture with microcrystalline cellulose, 40° C. and 75% RH, after 4 weeks): 0.51%
- Total impurities ([2]; binary mixture with silicified microcrystalline cellulose, 40° C. and 75% RH, after 4 weeks): 0.69%
- solubility ([3]; citrate buffer, aqueous buffer, pH 3 (Citrate 25 mM, l = 0.1), pH 3.0, 22° C.): 600 µg/mL
- solubility ([3]; simulated gastric fluid, 0.1M HCl, pH 1.3, 22° C.): 1810 µg/mL
- solubility ([3]; Water (1 mg/ml load), pH 3.1, 22° C.): 550 µg/mL
- solubility ([3]; Water (5 mg/ml load), pH 2.2, 22° C.): 2070 µg/mL
